Source: publication PMC10174618, “Monoterpenoid aryl hydrocarbon receptor allosteric antagonists protect against ultraviolet skin damage in female mice” (Nature Communications, 2023)

Legend:
Test in all cases: biochemical
Set-up in all cases: KINOMEscan scanMAX active site-directed competition binding assay, percent of control, 468 kinases
Conditions in all cases: competition binding, percent of control
PIK3C2B = PIK3C2B (Homo sapiens, UniProt O00750)
In short: (§1)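 Single-concentration screen (100 μM S-carvone) in a competition binding panel of 468 human kinases (KINOMEscan scanMAX); results given as percent of control, hit cutoff 35%.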

GCN2(Kin.Dom.2,S808G) = molecular target: T1, GCN2(Kin.Dom.2,S808G) (Homo sapiens, UniProt Q9P2K8, S808G)
T1 construct: gene EIF2AK4; Kin.Dom.2
In short: as §1

TAOK3 = TAOK3 (Homo sapiens, UniProt Q9H2K8)
In short: as §1

LYN = LYN (Homo sapiens, UniProt P07948)
Sequence of LYN (P07948 whole entry): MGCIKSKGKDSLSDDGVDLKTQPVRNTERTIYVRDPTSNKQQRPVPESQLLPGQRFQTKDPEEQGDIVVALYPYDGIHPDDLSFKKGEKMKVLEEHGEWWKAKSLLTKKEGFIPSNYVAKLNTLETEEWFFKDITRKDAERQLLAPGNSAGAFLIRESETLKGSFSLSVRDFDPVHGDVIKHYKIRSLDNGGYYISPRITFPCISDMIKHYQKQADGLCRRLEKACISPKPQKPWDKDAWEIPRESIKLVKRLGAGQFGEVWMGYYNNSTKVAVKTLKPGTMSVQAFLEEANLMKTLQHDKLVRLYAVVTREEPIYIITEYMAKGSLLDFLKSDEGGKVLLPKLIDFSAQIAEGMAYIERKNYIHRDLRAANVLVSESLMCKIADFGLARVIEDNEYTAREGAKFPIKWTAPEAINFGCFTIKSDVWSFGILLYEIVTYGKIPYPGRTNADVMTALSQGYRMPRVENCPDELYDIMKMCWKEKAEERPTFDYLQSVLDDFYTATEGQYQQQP
In short: as §1

EGFR(T790M) = EGFR(T790M) (Homo sapiens, UniProt P00533, T790M)
In short: as §1

MEK5 = molecular target: T2, MEK5 (Homo sapiens, UniProt Q13163)
T2 construct: gene MAP2K5
In short: as §1

MAPKAPK5 = MAPKAPK5 (Homo sapiens, UniProt Q8IW41)
Sequence of MAPKAPK5 (Q8IW41 whole entry): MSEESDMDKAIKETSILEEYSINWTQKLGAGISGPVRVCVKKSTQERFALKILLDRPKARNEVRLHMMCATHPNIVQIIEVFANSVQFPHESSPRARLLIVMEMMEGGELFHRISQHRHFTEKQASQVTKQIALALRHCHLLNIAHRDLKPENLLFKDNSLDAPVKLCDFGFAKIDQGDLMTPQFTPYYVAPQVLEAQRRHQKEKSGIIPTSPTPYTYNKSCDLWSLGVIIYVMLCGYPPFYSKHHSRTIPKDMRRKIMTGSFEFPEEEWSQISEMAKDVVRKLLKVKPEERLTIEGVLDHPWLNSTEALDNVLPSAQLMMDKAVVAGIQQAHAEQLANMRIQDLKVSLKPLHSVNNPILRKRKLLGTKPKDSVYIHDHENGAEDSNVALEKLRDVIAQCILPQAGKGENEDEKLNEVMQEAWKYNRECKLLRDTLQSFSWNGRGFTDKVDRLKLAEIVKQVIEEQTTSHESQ
In short: as §1

NLK = NLK (Homo sapiens, UniProt Q9UBE8)
Sequence of NLK (Q9UBE8 whole entry): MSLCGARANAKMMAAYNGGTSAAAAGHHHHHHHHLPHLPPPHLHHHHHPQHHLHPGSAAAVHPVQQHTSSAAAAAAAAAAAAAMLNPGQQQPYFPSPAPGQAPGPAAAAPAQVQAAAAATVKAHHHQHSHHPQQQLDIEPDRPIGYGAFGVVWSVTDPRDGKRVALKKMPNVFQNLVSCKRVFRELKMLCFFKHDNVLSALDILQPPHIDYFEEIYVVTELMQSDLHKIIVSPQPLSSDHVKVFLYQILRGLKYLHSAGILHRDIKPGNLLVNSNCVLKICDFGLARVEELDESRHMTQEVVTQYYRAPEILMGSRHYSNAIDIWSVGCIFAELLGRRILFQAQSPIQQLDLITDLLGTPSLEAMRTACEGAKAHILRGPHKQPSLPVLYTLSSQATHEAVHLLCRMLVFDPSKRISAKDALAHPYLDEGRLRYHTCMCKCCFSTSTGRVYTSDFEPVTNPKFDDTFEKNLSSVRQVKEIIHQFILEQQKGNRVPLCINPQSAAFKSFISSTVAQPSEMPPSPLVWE
In short: as §1

[1] = molecular target: T3, RSK3(Kin.Dom.2-C-terminal) (Homo sapiens, UniProt Q15349)
T3 construct: gene RPS6KA2; Kin.Dom.2-C-terminal
T3 sequence (Q15349 whole entry): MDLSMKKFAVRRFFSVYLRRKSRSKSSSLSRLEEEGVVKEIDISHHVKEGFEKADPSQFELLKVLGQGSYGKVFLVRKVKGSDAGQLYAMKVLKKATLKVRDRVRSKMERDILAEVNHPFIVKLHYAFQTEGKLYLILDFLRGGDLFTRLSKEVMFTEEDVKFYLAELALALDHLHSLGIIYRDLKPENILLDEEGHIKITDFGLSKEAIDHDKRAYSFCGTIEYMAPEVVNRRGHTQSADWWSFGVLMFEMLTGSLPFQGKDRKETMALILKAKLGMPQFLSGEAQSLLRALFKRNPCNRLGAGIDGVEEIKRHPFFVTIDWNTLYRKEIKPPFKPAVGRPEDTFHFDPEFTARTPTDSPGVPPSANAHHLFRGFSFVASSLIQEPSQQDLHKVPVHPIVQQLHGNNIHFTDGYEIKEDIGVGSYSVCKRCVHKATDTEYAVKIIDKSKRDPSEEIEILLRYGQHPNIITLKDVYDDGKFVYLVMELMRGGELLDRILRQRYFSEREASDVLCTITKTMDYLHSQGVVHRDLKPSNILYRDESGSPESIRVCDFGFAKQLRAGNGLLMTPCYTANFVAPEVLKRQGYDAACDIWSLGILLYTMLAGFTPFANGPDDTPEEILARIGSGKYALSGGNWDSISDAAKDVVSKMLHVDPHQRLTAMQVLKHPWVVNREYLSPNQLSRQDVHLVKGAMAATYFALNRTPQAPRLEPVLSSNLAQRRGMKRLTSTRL
In short: as §1

RIPK4 = RIPK4 (Homo sapiens, UniProt P57078)
In short: as §1

RET = RET (Homo sapiens, UniProt P07949)
In short: as §1

NEK11 = NEK11 (Homo sapiens, UniProt Q8NG66)
In short: as §1

[2] = molecular target: T4, ABL1(T315I)-phosphorylated (Homo sapiens, UniProt P00519, T315I)
T4 construct: phosphorylated
In short: as §1

YANK2 = molecular target: T5, YANK2 (Homo sapiens, UniProt Q9NY57)
T5 construct: gene STK32B
In short: as §1

SRPK3 = SRPK3 (Homo sapiens, UniProt Q9UPE1)
Sequence of SRPK3 (Q9UPE1 whole entry): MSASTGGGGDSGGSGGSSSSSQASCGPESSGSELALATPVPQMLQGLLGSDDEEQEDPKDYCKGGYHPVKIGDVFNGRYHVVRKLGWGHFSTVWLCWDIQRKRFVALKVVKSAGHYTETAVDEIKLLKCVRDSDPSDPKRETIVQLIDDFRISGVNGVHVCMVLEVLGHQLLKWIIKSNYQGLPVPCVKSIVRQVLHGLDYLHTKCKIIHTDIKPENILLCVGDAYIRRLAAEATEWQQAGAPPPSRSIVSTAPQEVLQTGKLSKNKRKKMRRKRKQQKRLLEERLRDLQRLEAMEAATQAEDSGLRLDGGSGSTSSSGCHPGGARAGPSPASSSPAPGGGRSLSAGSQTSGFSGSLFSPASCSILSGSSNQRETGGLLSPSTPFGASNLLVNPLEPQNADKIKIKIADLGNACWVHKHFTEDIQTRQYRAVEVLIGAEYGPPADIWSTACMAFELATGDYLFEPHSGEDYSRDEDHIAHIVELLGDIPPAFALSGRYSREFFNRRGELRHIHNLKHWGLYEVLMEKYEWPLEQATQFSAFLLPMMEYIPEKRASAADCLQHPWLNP
In short: as §1

RIOK1 = RIOK1 (Homo sapiens, UniProt Q9BRS2)
Sequence of RIOK1 (Q9BRS2 whole entry): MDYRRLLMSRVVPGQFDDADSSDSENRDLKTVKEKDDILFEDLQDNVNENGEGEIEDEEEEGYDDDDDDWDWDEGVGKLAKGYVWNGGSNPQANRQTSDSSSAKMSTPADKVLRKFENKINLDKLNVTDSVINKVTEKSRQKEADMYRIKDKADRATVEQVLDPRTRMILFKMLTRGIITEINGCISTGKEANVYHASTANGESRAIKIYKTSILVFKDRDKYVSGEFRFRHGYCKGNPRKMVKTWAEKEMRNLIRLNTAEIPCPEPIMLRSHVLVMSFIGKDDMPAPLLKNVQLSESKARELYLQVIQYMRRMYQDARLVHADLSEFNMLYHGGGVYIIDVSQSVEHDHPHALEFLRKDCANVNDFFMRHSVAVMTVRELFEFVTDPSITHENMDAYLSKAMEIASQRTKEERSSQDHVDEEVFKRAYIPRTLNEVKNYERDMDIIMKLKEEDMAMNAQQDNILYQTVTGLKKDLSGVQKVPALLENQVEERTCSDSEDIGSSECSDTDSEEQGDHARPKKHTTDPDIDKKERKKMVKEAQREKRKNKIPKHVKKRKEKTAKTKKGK
In short: as §1

MST4 = molecular target: T6, MST4 (Homo sapiens, UniProt Q9P289)
T6 construct: gene STK26
T6 sequence (Q9P289 whole entry): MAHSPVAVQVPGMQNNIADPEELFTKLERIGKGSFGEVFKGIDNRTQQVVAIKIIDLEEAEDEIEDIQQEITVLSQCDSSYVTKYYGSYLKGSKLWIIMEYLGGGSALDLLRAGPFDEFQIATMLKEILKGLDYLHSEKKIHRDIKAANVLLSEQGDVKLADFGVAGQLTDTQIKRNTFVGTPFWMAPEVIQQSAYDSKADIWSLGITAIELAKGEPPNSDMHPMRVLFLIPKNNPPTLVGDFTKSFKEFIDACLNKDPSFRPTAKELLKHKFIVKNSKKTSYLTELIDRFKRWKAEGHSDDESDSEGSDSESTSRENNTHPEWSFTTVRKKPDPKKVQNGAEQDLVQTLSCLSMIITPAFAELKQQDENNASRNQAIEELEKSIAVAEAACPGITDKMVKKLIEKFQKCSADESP
In short: as §1

EPHA3 = EPHA3 (Homo sapiens, UniProt P29320)
In short: as §1

ASK2 = molecular target: T7, ASK2 (Homo sapiens, UniProt O95382)
T7 construct: gene MAP3K6
In short: as §1

TGFBR1 = TGFBR1 (Homo sapiens, UniProt P36897)
Sequence of TGFBR1 (P36897 whole entry): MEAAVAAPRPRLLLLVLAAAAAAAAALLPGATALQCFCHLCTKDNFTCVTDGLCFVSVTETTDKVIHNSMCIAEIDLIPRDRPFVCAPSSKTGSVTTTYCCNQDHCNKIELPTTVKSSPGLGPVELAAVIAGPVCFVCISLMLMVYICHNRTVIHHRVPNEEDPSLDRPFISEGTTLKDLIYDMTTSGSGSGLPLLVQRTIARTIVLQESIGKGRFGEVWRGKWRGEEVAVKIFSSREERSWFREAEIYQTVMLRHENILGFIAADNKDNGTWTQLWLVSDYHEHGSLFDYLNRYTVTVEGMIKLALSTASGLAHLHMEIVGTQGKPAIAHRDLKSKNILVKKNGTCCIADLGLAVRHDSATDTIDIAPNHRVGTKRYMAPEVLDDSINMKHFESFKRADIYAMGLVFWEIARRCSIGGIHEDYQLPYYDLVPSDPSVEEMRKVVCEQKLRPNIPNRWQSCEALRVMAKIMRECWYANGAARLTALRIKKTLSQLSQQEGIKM
In short: as §1

GRK3 = GRK3 (Homo sapiens, UniProt P35626)
Sequence of GRK3 (P35626 whole entry): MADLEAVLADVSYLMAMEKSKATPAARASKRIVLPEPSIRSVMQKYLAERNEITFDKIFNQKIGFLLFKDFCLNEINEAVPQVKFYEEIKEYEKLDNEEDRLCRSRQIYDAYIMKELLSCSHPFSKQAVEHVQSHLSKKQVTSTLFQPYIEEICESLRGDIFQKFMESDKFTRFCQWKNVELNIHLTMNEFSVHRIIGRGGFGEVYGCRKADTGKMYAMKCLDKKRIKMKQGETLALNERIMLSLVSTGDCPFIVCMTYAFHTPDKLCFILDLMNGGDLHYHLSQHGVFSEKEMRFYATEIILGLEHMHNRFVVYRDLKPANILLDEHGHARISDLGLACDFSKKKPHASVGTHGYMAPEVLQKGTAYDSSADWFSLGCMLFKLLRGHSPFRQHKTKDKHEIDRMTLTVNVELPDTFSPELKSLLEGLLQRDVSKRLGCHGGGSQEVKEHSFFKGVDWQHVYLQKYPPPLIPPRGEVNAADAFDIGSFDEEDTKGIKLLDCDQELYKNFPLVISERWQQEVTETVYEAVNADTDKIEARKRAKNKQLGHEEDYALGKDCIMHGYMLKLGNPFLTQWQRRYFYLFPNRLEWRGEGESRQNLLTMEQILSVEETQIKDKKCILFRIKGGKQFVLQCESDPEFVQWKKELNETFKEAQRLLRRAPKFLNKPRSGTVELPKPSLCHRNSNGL
In short: as §1

C=C(C)[C@H]1CC=C(C)C(=O)C1 [S-carvone]
remaining binding at 100 µM (PIK3C2B): 72%
remaining binding at 100 µM (GCN2(Kin.Dom.2,S808G)): 63%
remaining binding at 100 µM (TAOK3): 73%
remaining binding at 100 µM (LYN): 72%
remaining binding at 100 µM (EGFR(T790M)): 64%
remaining binding at 100 µM (MEK5): 74%
remaining binding at 100 µM (MAPKAPK5): 87%
remaining binding at 100 µM (NLK): 81%
remaining binding at 100 µM [1]: 63%
remaining binding at 100 µM (RIPK4): 64%
remaining binding at 100 µM (RET): 82%
remaining binding at 100 µM (NEK11): 52%
remaining binding at 100 µM [2]: 88%
remaining binding at 100 µM (YANK2): 79%
remaining binding at 100 µM (SRPK3): 61%
remaining binding at 100 µM (RIOK1): 100%
remaining binding at 100 µM (MST4): 100%
remaining binding at 100 µM (EPHA3): 100%
remaining binding at 100 µM (ASK2): 100%
remaining binding at 100 µM (TGFBR1): 100%
remaining binding at 100 µM (GRK3): 58%
